Patent publication US6703388B2, “Nitrogen-containing tricyclic compounds and drugs containing the same” (Eisai Co., Ltd., priority 1996, dated 2004)
Where two headings read alike, the source gives them in different places.

Experiments:
RBL-2H3 cells = assay: Inhibition of serotonin liberation from IgE-sensitized RBL-2H3 cells after antigen stimulation; format: cell-based, rat; conditions: Rattus norvegicus; [3H]-serotonin release, IgE-sensitized RBL-2H3 cells, antigen stimulation; read-out: IC50 (μM) in serotonin liberation from RBL-2H3 cells
Text: IgE-sensitized RBL-2H3 cells (i.e., a cell line originating in rat cells) release and produce not only histamine and serotonin but also cytokines such as TNF α and prostaglandins which are inflammatory mediators after stimulation with IgE sepecific antibody. In this experimental system, inhibitory effects on various mediators release were examined by using serotonin as an indication.
The cells were beforehand labeled with [^3H]-labeled serotonin and, at the same time, sensitized with the IgE antibody. After incubating with the compounds of the present invention, the cells were stimulated with the specific antigen. Then the inhibitory activity of each compound was calculated from the amount of the [^3H]-labeled serotonin thus liberated into the medium and the amount of [^3H]-labeled serotonin liberated when no compound of the present invention was added.

human basophils = assay: Inhibition of mediator (histamine, peptide leukotriene) liberation from human basophils stimulated with mite antigen; format: cell-based; conditions: enzyme immunoassay
Description: 6 ml of 6% dextran (for separating leukocytes, having a high molecular weight) was added to 20 ml of heparinized blood. After stirring well, the resulting mixture was allowed to stand at 37° C. for 30 min and thus erythrocytes were precipitated. The upper layer was taken up and phosphate buffered saline (D-PBS) was added thereto followed by centrifugation at 185 g for 8 minutes to give a crude leukocyte fraction. These cells were subjected to hypotonic hematolysis and then suspended in D-PBS(+) containing 0.1%-BSA. The resulting suspension was used in the subsequent experiment as the leukocyte fraction containing basophils. 0.4 ml of this cell suspension was preliminarily heated to 37° C. for 5 min and then 0.05 ml of a specimen solution was added thereto followed by a pretreatment at 37° C. for 15 min. Next, 0.05 ml of a mite antigen solution was added thereto to induce an antigen-antibody reaction. After 10 min, the reaction was ceased by ice-cooling. Then the reaction mixture was centrifuged at 185 g for 10 min and histamine and peptide leukotrienes in the resulting supernatant were determined by using enzyme immunoassay kits. From the results of the assay, the activities of the acridone derivatives of inhibiting the liberation of histamine and peptide leukotriene were determined.

[1] = histamine, read-out: IC50 (μM) in mediator liberation from human basophils: histamine
[2] = peptide leukotriene, read-out: IC50 (μM) in mediator liberation from human basophils: leukotriene

Compound | IC50 (RBL-2H3 cells) [µM] | IC50 (human basophils; [1]) [µM] | IC50 (human basophils; [2]) [µM]
Cc1ccc2c(c1C)N(CCCNCc1ccccc1N(C)C)c1ccccc1[S+]2[O-] (centres unmarked) [Example 50] | 2 | 30 | 10 to 30
Cc1ccc2c(c1C)N(CCCNCc1ccccc1N)c1ccccc1[S+]2[O-] (centres unmarked) [Example 51] | 2 | 10 to 30 | 10 to 30
Cc1ccc2c(c1C)N(CCCNCc1ccc3c(c1)OCCO3)c1ccccc1[S+]2[O-] (centres unmarked) [Example 53] | 0.8 | 30 to 100 | 10 to 30
Cc1ccc2c(c1C)N(CCCNCc1cccc3c1OCO3)c1ccccc1[S+]2[O-] (centres unmarked) [Example 54] | 1 | 10 | 3 to 10
Cc1ccc2c(c1C)N(CCCNCc1ccc(C#N)s1)c1ccccc1[S+]2[O-] (centres unmarked) [Example 58] | 2 | 10 to 30 | 10 to 30
Cc1ccc2c(c1C)N(CCCNCc1ccco1)c1ccccc1[S+]2[O-] (centres unmarked) [Example 62] | 3 | 10 | 3
COc1ccc(CNCCCN2c3ccccc3[S+]([O-])c3ccc(C)c(C)c32)o1 (centres unmarked) [Example 64] | 3 | 3 to 10 | 3
Cc1ccc2c(c1C)N(CCCNCc1ccc(CO)o1)c1ccccc1[S+]2[O-] (centres unmarked) [Example 65] | 0.5 | 30 to 100 | 10 to 30
COc1ccsc1CNCCCN1c2ccccc2[S+]([O-])c2ccc(C)c(C)c21 (centres unmarked) [Example 66] | 0.5 | < 3 | < 3
COc1ccc(CNCCCN2c3ccccc3[S+]([O-])c3ccc(C)c(C)c32)s1 (centres unmarked) [Example 67] | 1 | 10 to 30 | 10 to 30
Cc1ccc2c(c1C)N(CCCNCc1[nH]cnc1-c1ccccc1)c1ccccc1[S+]2[O-] (centres unmarked) [Example 69] | 1 | 10 | 3 to 10
COc1csc(CNCCCN2c3ccccc3[S+]([O-])c3ccc(C)c(C)c32)c1 (centres unmarked) [Example 73] | 2 | 3 to 10 | 3 to 10
Cc1ccc2c(c1C)N(CCCNCc1ccccc1)c1ccc(Cl)cc1[S+]2[O-] (centres unmarked) [Example 80] | 1 | 10 | 3 to 10
COc1ccsc1CNCCCN1c2ccc(Cl)cc2[S+]([O-])c2ccc(C)c(C)c21 (centres unmarked) [Example 81] | 1 | 10 to 30 | 3 to 10
Cc1ccc2c(c1C)N(CCCNCc1ccccc1)c1cccc(Cl)c1[S+]2[O-] (centres unmarked) [Example 82] | 2 | 3 to 10 | 10 to 30
COc1ccsc1CNCCCN1c2cccc(Cl)c2[S+]([O-])c2ccc(C)c(C)c21 (centres unmarked) [Example 83] | 2 | 10 | 10 to 30
Cc1ccc2c(c1C)N(CCCNCc1ccccc1)c1cc(Cl)ccc1[S+]2[O-] (centres unmarked) [Example 84] | 2 | < 3 | < 3
COc1ccsc1CNCCCN1c2cc(Cl)ccc2[S+]([O-])c2ccc(C)c(C)c21 (centres unmarked) [Example 85] | 3 | 3 | 10 to 30
Cc1ccc2c(c1C)N(CCCNCCc1ccccc1)c1ccc(F)cc1[S+]2[O-] (centres unmarked) [Example 86] | 1 | 10 to 30 | 10
COc1ccsc1CNCCCN1c2ccc(F)cc2[S+]([O-])c2ccc(C)c(C)c21 (centres unmarked) [Example 87] | 3 | 3 to 10 | 3 to 10
Cc1ccc2c(c1C)N(CCCNCc1ccccc1)c1cc(C#N)ccc1[S+]2[O-] (centres unmarked) [Example 90] | 3 | 30 to 100 | 10 to 30
Cc1cc(C)c2c(c1C)N(CCCNCc1ccccc1)c1ccccc1[S+]2[O-] (centres unmarked) [Example 100] | 2 | 3 | 10

Compound | IC50 (RBL-2H3 cells) [µM] | IC50 (human basophils; [1]) [µM] | IC50 (human basophils; [2]) [µM]
Cc1ccc2c(c1C)N(CCCNC(C)c1ccccc1O)c1ccccc1[S+]2[O-] (centres unmarked) [Example 102] | 1 | 30 | 10 to 30
Cc1ccc2c(c1C)N(CCCN1CCc3ccccc3C1)c1ccccc1[S+]2[O-] (centres unmarked) [Example 108] | 2 | 30 | 10 to 30
Cc1ccc2c(c1C)N(CCCNCCOc1ccccc1)c1ccccc1[S+]2[O-] (centres unmarked) [Example 113] | 3 | 10 | < 10
Cc1ccc2c(c1C)N(CCCN1CCN(Cc3ccccc3O)CC1)c1ccccc1[S+]2[O-] (centres unmarked) [Example 114] | 2 | 30 to 100 | 10
Cc1ccc2c(c1C)N(Cc1cccc(CN3CCN(Cc4ccccc4)CC3)n1)c1ccccc1[S+]2[O-] (centres unmarked) [Example 122] | 3 | 10 to 30 | < 10
Cc1ccc2c(c1C)N(CCCN(CCN(C)C)Cc1ccccc1)c1ccccc1[S+]2[O-] (centres unmarked) [Example 125] | 2 | < 10 | < 10
Cc1ccc2c(c1C)N(CCCNC(CO)c1ccccc1)c1ccccc1[S+]2[O-] (centres unmarked) [Example 128] | 1 | – | 10 to 30
CCOC(=O)CN(CCCN1c2ccccc2[S+]([O-])c2ccc(C)c(C)c21)Cc1ccccc1O (centres unmarked) [Example 134] | 3 | 3 | 3
Cc1ccc2c(c1C)N(CCCN(Cc1ccccc1O)CC(O)CO)c1ccccc1[S+]2[O-] (centres unmarked) [Example 137] | 1 | 10 to 30 | 3
Cc1ccc2c(c1C)N(CCCCNCc1ccccc1O)c1ccccc1[S+]2[O-] (centres unmarked) [Example 140] | 3 | 10 | 3 to 10
Cc1ccc2c(c1C)N(CCNCc1ccccc1O)c1ccccc1[S+]2[O-] (centres unmarked) [Example 144] | 8 | 10 to 30 | 10 to 30
Cc1ccc2c(c1C)N(CCNCc1cccc(C)c1O)c1ccccc1[S+]2[O-] (centres unmarked) [Example 145] | 6 | 10 to 30 | < 10
Cc1ccc2c(c1C)N(CCNCc1cc(Cl)cc(Cl)c1O)c1ccccc1[S+]2[O-] (centres unmarked) [Example 146] | 3 | < 10 | < 10
Cc1ccc2c(c1C)N(CCNCc1cccc(C(C)C)c1O)c1ccccc1[S+]2[O-] (centres unmarked) [Example 147] | 3 | 10 | < 10
Cc1ccc2c(c1C)N(CCNCc1c(O)cccc1O)c1ccccc1[S+]2[O-] (centres unmarked) [Example 150] | 1 | 10 to 30 | 3 to 10
COCc1cccc(CNCCN2c3ccccc3[S+]([O-])c3ccc(C)c(C)c32)c1O (centres unmarked) [Example 151] | 2 | 10 to 30 | 3 to 10
Cc1ccc2c(c1C)N(CCNCc1cccc(CO)c1O)c1ccccc1[S+]2[O-] (centres unmarked) [Example 152] | 1 | 3 to 10 | < 3
COc1cccc(CNCCN2c3ccccc3[S+]([O-])c3ccc(C)c(C)c32)c1O (centres unmarked) [Example 154] | 6 | 10 to 30 | < 10
COc1ccccc1CNCCN1c2ccccc2[S+]([O-])c2ccc(C)c(C)c21 (centres unmarked) [Example 155] | 4 | 30 to 100 | 10 to 30
Cc1ccc2c(c1C)N(CCNCc1ccccc1CO)c1ccccc1[S+]2[O-] (centres unmarked) [Example 156] | 3 | 10 | 10
Cc1ccc2c(c1C)N(CCNCc1ccccc1OCCO)c1ccccc1[S+]2[O-] (centres unmarked) [Example 157] | 1 | 30 to 100 | 10 to 30
